Earlier results on five compounds are cited in patent publication US20250275935A1, “COMPOSITIONS AND METHODS FOR TREATING PATIENTS WITH DEMENTIA DUE TO ALZHEIMER'S DISEASE WITH A COMBINATION OF THC AND MELATONIN” (IGC Pharma IP, LLC, priority 2021, published 2025).

For data set [1] the following is noted: general statement, no test described.
A further data set deals with mice. The settings on record: THC 3 mg/kg bodyweight per day, four weeks.
For data set [2] the following is noted: 4.5 mg/day THC.
In data set [3] the test system is patient having severe Alzheimer's disease. Particulars: 4.9-6.7 mg dronabinol with 10 mg donepezil and 50 mg sertraline daily; decreased from 20.

Regarding `COc1ccc2[nH]cc(CCNC(C)=O)c2c1` [Melatonin, N-acetyl-5-methoxytryptamine], in data set [1], the solubility in water entry is given as “typically insoluble in water”.
In the case of `CCCCCc1cc(O)c2c(c1)OC(C)(C)[C@@H]1CCC(C)=C[C@@H]21` [THC, Tetrahydrocannabinol], the “cognitive performance (learning and memory)” value in the data set with mice (mature (12 months) and old (18 months) mice) is “cognitive deficits in learning and memory were erased”. Further, the cognitive performance entry in the data set on mice (young mice (2 month)) was “performed worse than the control group of young mice”. The “agitation or reduction from baseline of NPI total score versus placebo” value in data set [2] is on record as “No differences were shown”.
Consider `COc1cc(/C=C/C(=O)CC(=O)/C=C/c2ccc(O)c(OC)c2)ccc1O` [curcumin], for which the solubility in water result in data set [1] was “only poorly soluble in water”.
For the compound `CCCCCc1cc(O)c2c(c1)OC(C)(C)[C@@H]1CCC(C)=C[C@@H]21` [dronabinol], in data set [3], the NPI total score was 15.
For the compound `C[C@@H]1O[C@@H](OC[C@H]2O[C@@H](Oc3c(-c4ccc(O)c(O)c4)oc4cc(O)cc(O)c4c3=O)[C@H](O)[C@@H](O)[C@@H]2O)[C@H](O)[C@H](O)[C@H]1O` [rutin], the solubility in water entry in data set [1] is given as “only poorly soluble in water”.
